Source: patent US8946302B2, “Selective sigma-1 receptor ligands” (Wisconsin Alumni Research Foundation, priority 2008, dated 2015)
“And” between values parts separate entries of the source, which are not always exact repeats. Equal entries are not always repeated. Where two headings read alike, the source gives them in different places.

Legend:
[1] = target: T1, purified sigma-1 receptor (Cavia porcellus, UniProt Q60492); assay: Competitive displacement of [3H]-(+)-pentazocine at the pure sigma-1 receptor; format: binding, guinea pig; conditions: read-out: Ki Pure σ-1R
T1 construct: made in house; host or cells: E. coli BL21 DE3
T1 sequence (Q60492 whole entry): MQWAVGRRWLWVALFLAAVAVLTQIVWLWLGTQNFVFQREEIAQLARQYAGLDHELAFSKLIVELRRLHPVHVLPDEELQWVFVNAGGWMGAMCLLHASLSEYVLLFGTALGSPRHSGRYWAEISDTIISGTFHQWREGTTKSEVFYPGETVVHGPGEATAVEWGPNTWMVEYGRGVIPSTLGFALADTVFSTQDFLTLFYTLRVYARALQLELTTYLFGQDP
Description: A guinea pig sigma-1 receptor was purified as previously described (Ramachandran et al., Protein Expr. Purif., 2007. 51(2): 283-92). The pMal P2X plasmid (New England Biolabs) encoding the guinea pig sigma-1 receptor on the C-terminus of the E. coli Maltose Binding Protein was used for purification. The sigma-1 receptor on its C-terminus carried a hexa-histadine epitope tag. Protein was expressed in the E. coli strain BL21 DE3 (Novagen) with 0.6 mM IPTG. The E. coli pellet was sonicated and centrifuged at 100,000 g for 1 hour to separate the particulate and soluble fractions. The particulate fraction was extracted with Triton X-100, centrifuged and the extract was loaded onto an amylose resin (New England Biolabs, E-802). After washing the resin with buffer containing 0.5% Triton X-100, the MBP-sigma-1 receptor fusion protein was eluted with buffer containing 10 mM maltose.
The MBP-sigma-1-receptor fusion protein was cleaved with Factor Xa protease (Novagen) at room temperature for 24-48 hours and the cleavage was monitored with SDS-polyacrylamide gel electrophoresis. The sigma-1 receptor from the Factor Xa cleavage was purified with a HIS-Select HC Nickel affinity gel (Sigma-Aldrich P6611) in a batch format. The resin was washed with buffer containing 0.5% Triton X-100 detergent and the beads were separated by a brief centrifugation at 4000 rpm in a microcentrifuge. After washing to remove MBP, the pure sigma-1 receptor was eluted in buffer containing 250 mM imidazole.
To remove the undigested MBP-sigma-1 receptor fusion protein that is carried over in the Ni^2+ purification, the eluate from the Ni^2+ purification was incubated with Anti-MBP antibody conjugated to agarose (Vector Laboratories, Burlingame, Calif.) at 4° C. for 18-24 hours. The beads were separated by centrifugation and the supernatant contained the pure sigma-1 receptor.
Competition ligand binding to the pure sigma-1 receptor was performed as previously described. […] After incubation at 30° C. for 60 minutes, the reaction was terminated by rapid filtration through glass fiber filters (Whatman GF/B), using a Brandel cell harvester (Brandel, Gaithersburg, Md.). The glass fiber filters were pre-soaked in 0.5% polyethyleneimine (PEI) for at least 1 hour at room temperature (˜23° C.). Filters were washed 4 times with 4 mL of ice-cold 50 mM Tris-C1, pH 8.0. Radioactivity was quantified by liquid scintillation counting using a Packard model 1600 CA scintillation counter.

[2] = target: T2, sigma-1 receptor (Cavia porcellus, UniProt Q60492); assay: Affinity for the sigma-1 receptor (Table 3); format: binding; parameters: from tissue
T2 sequence (Q60492 whole entry): as above

[3] = target: T3, σ-1 Sites (Cavia porcellus, UniProt Q60492); assay: σ-1 sites radioligand binding, guinea pig liver membranes (Table 2); conditions: for Ki: guinea pig liver membranes; for σ-1 selectivity σ-2 Ki/σ-1 Ki: σ-2 rat liver / σ-1 guinea pig liver membranes
T3 construct: from tissue
T3 sequence (Q60492 whole entry): as above
Description: (§1) Assays for sigma-1 were performed using 10 nM (+)-[^3H]pentazocine in guinea pig liver homogenates (25 μg/well) incubated at 30° C. for 1 hour with several concentrations of competing ligands. After incubation, membranes were harvested on a 0.5% PEI-treated Whatman GF/B filters using a Brandel Cell Harvester. (+)-[^3H]pentazocine binding was determined by liquid scintillation counting. […] Serial concentrations of the compounds evaluated were added to the reactions for 45 minutes at 30° C. and the samples vacuum filtered through 0.5% polyethyleneimine (PEI) treated Whatman GF/B as described above to measure displacement of the radioligands from the sigma receptor subtypes.

[4] = target: T4, σ-2 Sites (Rattus norvegicus, UniProt Q5U3Y7); assay: σ-2 sites radioligand binding, rat liver membranes (Table 2)
T4 construct: from tissue
T4 sequence (Q5U3Y7 1-176): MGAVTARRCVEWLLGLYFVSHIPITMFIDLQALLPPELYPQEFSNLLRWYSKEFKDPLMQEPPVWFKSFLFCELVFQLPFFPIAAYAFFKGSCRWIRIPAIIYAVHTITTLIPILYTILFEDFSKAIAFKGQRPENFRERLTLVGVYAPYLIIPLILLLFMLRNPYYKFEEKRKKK
Description: as §1

[5] = system: tumor cell lines; assay: Cytotoxicity assays, various tumor cell lines (statements in words); format: cell-based, human
Description: Because sigma-1 receptors are overexpressed in numerous tumor cell lines, which include breast cancer, lung carcinoma, renal carcinoma, colon carcinoma, sarcoma, brain tumors, melanoma, glioblastoma, neuroblastoma, and prostate cancer, the ability of the compounds to inhibit the growth of various tumor cell lines were tested.
Multi-plex cytotoxicity assays were performed by the Keck-UWCCC Small Molecule Screening Facility (Madison, Wis.). Specific methodology can be found online at http://hts.wisc.edu/Resources.htm#mpa.

[6] = target: T5, sigma-2 receptor (Rattus norvegicus, UniProt Q5U3Y7); assay: Sigma-2 competitive binding, [3H]-DTG with (+)-pentazocine, rat liver membranes (Example 6); parameters: from tissue; host or cells: rat liver membranes
T5 sequence (Q5U3Y7 1-176): T4 sequence (Q5U3Y7 1-176)
Description: (§2) Minced frozen rat livers or guinea pig livers (65 g) were thawed in 100 mL homogenization buffer (10 mM phosphate buffer pH 7.4 containing 0.32M sucrose, 1 M MgSO4, 0.5 M EGTA, 1 mM phenylmethylsulphonyl fluoride (PMSF), 10 μg/mlleupeptin, 1 μg/ml pepstatin A, 10 μg/ml p-toluenesulfonyl-L-arginine methyl ester (TAME) and then homogenized on ice with a Brinkman polytron homogenizer (setting 6, 4 bursts of 10 second each) followed by a glass homogenizer (Teflon pestle by 6 slow passes at 3,000 rpm). The homogenized tissues were then centrifuged at 17,000 g for 10 minutes. The supernatants were re-centrifuged at 100,000 g for 1 hour. The microsomal pellets were resuspended in homogenization buffer, snap frozen with dry ice-ethanol, and stored at −80° C. at a final protein concentration of 20 mg/mL.
as §1

[7] = target: T2, sigma-1 receptor; assay: Sigma-1 competitive binding, (+)-[3H]pentazocine, guinea pig liver membranes (Example 6); parameters: from tissue; host or cells: guinea pig liver membranes;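 further: compounds tested over serial concentrations, 45 min incubation at 30 °C with membrane preparations, read-out is displacement of bound radioligand from the receptor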
Description: as §2, §1

[8] = rat liver membranes, n = 3, read-out: Sigma2 KD values

CCCCCCN [Hexylamine]
Ki ([1]; [3H]-(+)-pentazocine 10 nM): 37.5 µM and 37 µM

CCCCN(CCCC)CCCc1ccc([N+](=O)[O-])cc1 [HD2]
Kd ([2]; read-out: Sigma-1 KD): 0.00036 µM

CCCCCCCCCCCCNCCCc1ccc([N+](=O)[O-])cc1 [Compound 1f, N-(3-(4-Nitrophenyl)propyl)dodecan-1-amine]
Ki ([1]; [3H]-(+)-pentazocine): 0.0318 µM | Ki [3]: 5.17 µM | Ki [4]: 2.38 µM | cytotoxicity / tumor cell growth inhibition [5]: remarkable activity for inhibiting tumor growth | Kd ([2]; read-out: Sigma-1 KD): 0.00039 µM

CCCCN(CCCC)CCCC [Compound 6]
Kd [6, 8]: 44.8 µM | Ratio (σ2/σ1) [7]: 6.41 | Kd ([7]; guinea pig liver membranes, n = 3, read-out: Sigma 1 KD values): 7 µM

CCCN(CCCc1ccc(F)cc1)Cc1ccc(N=[N+]=[N-])c(I)c1 [Compound 15]
Ratio (σ2/σ1) [7]: 570.8 ^

CCCCCCCCN [Octylamine]
Ki ([1]; [3H]-(+)-pentazocine 10 nM): 5.6 µM and 6 µM

CCCCCCCCCCCCCCCCCCNCCCc1ccc([N+](=O)[O-])cc1 [Compound 1h, N-(3-(4-Nitrophenyl)propyl)octadecan-1-amine]
Ki ([1]; [3H]-(+)-pentazocine): 0.0415 µM | Ki [3]: 26.9 µM | σ-1 selectivity σ-2 Ki/σ-1 Ki [3]: 0.3 | Ki [4]: 8.83 µM

CCCCN(CCCC)CCCc1ccc(F)cc1 [HD1]
Kd ([2]; read-out: Sigma-1 KD): 0.0177 µM

CCCCCCCCCCCCCCCCCCN [Stearylamine]
Ki ([1]; [3H]-(+)-pentazocine 10 nM): 8.5 µM and 8 µM

CCCNCCc1ccc(F)cc1 [Compound 9]
Kd [6]: 0.23 µM | Kd [7]: 0.091 µM | Ratio (σ2/σ1) [7]: 2.53

CCCCCN [Amylamine]
Ki ([1]; [3H]-(+)-pentazocine 10 nM): 167 ± 35.2 µM

CCCN(Cc1ccc([N+](=O)[O-])cc1)C(=O)CCc1ccc(F)cc1 [Compound 13, N-Propyl-N-(4-nitro-benzyl)-3-(4-fluorophenyl)propionamide]
Kd [6, 8]: 236 µM

CCCN(CCC)CCc1c[nH]c2ccccc12 [DPT, reference compound]
Kd [2]: 1.6 µM

CCCCCCCCCCCCNCCCc1ccccc1 [Compound 1e, N-(3-Phenylpropyl)dodecan-1-amine]
Ki ([1]; [3H]-(+)-pentazocine): 0.0632 µM | Ki [3]: 5.3 µM | Ki [4]: 2.1 µM

CCCCCCCNCCCc1ccc([N+](=O)[O-])cc1 [Compound 1d, N-(3-(4-Nitrophenyl)propyl)heptane-1-amine]
Ki ([1]; [3H]-(+)-pentazocine): 0.0075 ± 0.0012 µM | Ki [3]: 0.01 µM | σ-1 selectivity σ-2 Ki/σ-1 Ki [3]: 1 | Ki [4]: 0.011 µM | cytotoxicity / tumor cell growth inhibition [5]: remarkable activity for inhibiting tumor growth | Kd ([2]; read-out: Sigma-1 KD): 0.0057 µM

CCCCNCCCc1ccc([N+](=O)[O-])cc1 [Compound 1b, N-(3-(4-Nitrophenyl)propyl)butan-1-amine]
Ki ([1]; [3H]-(+)-pentazocine): 0.02 µM | Ki [3]: 0.003 µM | σ-1 selectivity σ-2 Ki/σ-1 Ki [3]: 7 | Ki [4]: 0.022 µM
